From ChEMBL document CHEMBL2094269, “WEHI/Eskitis Trypanosoma b. brucei screening data” come the findings set out here.

pIC50: −log10 of the molar value. Where “and” joins values, the source holds several entries; their conditions need not be identical. Equal entries are not always repeated.

A word on the pIC50: it is −log10 of the IC50, conventionally taken in molar units. Low readings indicate a large IC50, high ones a small IC50.

The nature of data set [1]: DNDI: Cytotoxicity against human MRC-5 lung fibroblast cells. Particulars: IC50.
In data set [2] the test system is Trypanosoma brucei brucei. Nature of the data set: microbe, parasite or virus in culture. Format: functional, organism-based, STIB 795.
Description: DNDI: Inhibition of Human African Trypanosomiasis (HAT), STIB 795, in vitro

`Cc1nnc(-c2ccccc2)c(=O)n1/N=C/c1c(O)ccc2ccccc12`: the pIC50 in data set [1] is less than 5.38; in data set [2] it was 5.22; in data set [2] (Trypanosoma brucei, STIB 795) it was 5.20.
Regarding `Clc1ccc(OCCCCCN2CCNCC2)c(Cl)c1`, the pIC50 is less than 4.38 in data set [1] and 5.45 in data set [2] (Trypanosoma brucei, STIB 795).
Taken in the same sequence, the figures for `CN1CCC(=NNC(=O)c2cc(-c3ccc(Cl)cc3)nc3ccccc23)CC1` were less than 4.38 and 5.26.
The corresponding values for `Brc1ccc(-c2nc(N3CCNCC3)c3ccccc3n2)cc1` are less than 4.98 and 5.55.
The corresponding values for `CN1CCN(Cc2cn(-c3ccc(Cl)cc3)c3ccc(F)cc23)CC1` are less than 4.38 and 5.28.
With `Cc1cc(NCCN2CCOCC2)c2ccc3ccccc3c2n1`, the pIC50 was less than 4.68 in data set [1] and 5.31 in data set [2] (Trypanosoma brucei, STIB 795).
Consider `N#CC1=C(N)Oc2[nH]nc(C(F)(F)F)c2C1c1cccs1` (centres undefined), for which the pIC50 in data set [1] was less than 4.38; in data set [2], 5.27; in data set [2] (Trypanosoma brucei, STIB 795), 5.26.
As to `CCCn1c(=O)c2c(nc3n2CCN3Cc2ccco2)n(C)c1=O`, the negative-log IC50 (pIC50) in data set [1] was less than 4.38; in data set [2] (Trypanosoma brucei, STIB 795), 5.31.
For `Cc1ccc(O)c(NC(=O)c2nc(N)n(C)n2)c1`, the pIC50 in data set [1] is 5.74; in data set [2] (Trypanosoma brucei, STIB 795) it was 6.71.
The corresponding values for `CCC1=C(C)c2cc3nc(C(=O)OCc4ccccc4)c(C)c-3c(C)n2C1C` (centres undefined) are less than 4.38 and 5.25.
Taken in the same sequence, the figures for `O/N=C1\C=Cc2[nH]c(-c3ccccc3)cc2\C1=N/O` were 6.14 and 6.60.
Taken in the same sequence, the figures for `O=C(CN1CCN(c2ccc(Cl)cc2)CC1)c1ccc(O)c(O)c1` were less than 4.38 and 5.52.
As to `O=C(N/N=C/c1c(O)ccc2ccccc12)c1cc[nH]n1`, the pIC50 in data set [1] is less than 4.68; in data set [2] (Trypanosoma brucei, STIB 795) it was 5.57.
On to `Cc1cc(C)c2nc(C)cc(Nc3ccc(O)cc3)c2c1`, for which the pIC50 in data set [1] was less than 4.68; in data set [2] (Trypanosoma brucei, STIB 795), 5.53.
The corresponding values for `CCOC(=O)/C=C\n1nnc2ccccc21` are less than 4.38 and 6.30.
Taken in the same sequence, the figures for `CCCc1cc(=O)[nH]c(-n2nc(C)cc2NC(=O)c2ccc(OC)c(OC)c2)n1` were less than 4.38 and 5.28.
On to `CC(C)C1CC(CCNCc2ccc(N(C)C)cc2)(c2ccccc2)CCO1` (centres undefined), for which the pIC50 in data set [1] is less than 4.38; in data set [2] (Trypanosoma brucei, STIB 795) it was 5.28.
The corresponding values for `CC[n+]1c(/C=C/c2c[nH]c3ccccc23)ccc2cc(C)ccc21` are 5.43 and 6.53.
As to `CCc1cc(Sc2ccccc2NC(=O)C2CCCCC2)n2nc(C)nc2n1`, the pIC50 in data set [1] is less than 4.38; in data set [2] (Trypanosoma brucei, STIB 795) it was 5.28.
Taken in the same sequence, the figures for `CCc1cc2c(cc1C(C)N)C(C)(C)CCC2(C)C` (centres undefined) were less than 4.68 and 5.30.
With `O=C(CC(Sc1cccc2cccnc12)c1ccc(F)cc1)c1cccs1` (centres undefined), the pIC50 was less than 4.68 in data set [1] and 6.29 in data set [2] (Trypanosoma brucei, STIB 795).
The corresponding values for `CCCCOc1ccccc1/C=N/NC(=N)N` are less than 4.38 and 5.27.
For the compound `CC1(C)CC(NC2=C(Cl)C(=O)c3ccccc3C2=O)CC(C)(C)N1`, the pIC50 in data set [1] is 5.29; in data set [2] (Trypanosoma brucei, STIB 795), 5.75.
The corresponding values for `C[n+]1ccccc1C=C1C=CN(c2ccc(Cl)cc2)C=C1` are less than 5.38 and 7.55.
Turning to `COc1ccc2c(c1)S/C(=C/C(=O)c1ccncc1)N2C`, the pIC50 in data set [1] is less than 4.38; in data set [2] (Trypanosoma brucei, STIB 795) it was 5.30.
Taken in the same sequence, the figures for `C=CCn1c(=N)n(CC(O)COc2ccccc2C)c2ccccc21` (centres undefined) were less than 4.68 and 6.14.
With `CC1(C)CCC[C@]2(C)C=C(C3OCCO3)C(=O)C[C@@H]12`, the pIC50 in data set [1] is less than 4.38; in data set [2] (Trypanosoma brucei, STIB 795) it was 5.28.
Taken in the same sequence, the figures for `CC(C)COc1ccc2c(c1)c1c3n2CNCC3CCC1` (centres undefined) were less than 4.68 and 5.54.
The corresponding values for `NCCNCCOC(c1ccc(Cl)cc1)c1ccc(Cl)cc1` are 5.25 and 6.62.
Taken in the same sequence, the figures for `COc1ccc(C(C)(C)C#Cc2c(C)nc(N)nc2N)cc1` were less than 5.38 and not below 5.46.
As for `COc1cc(CNCCO)cc(Br)c1OCc1ccccc1`, the pIC50 in data set [1] was less than 4.38; in data set [2] (Trypanosoma brucei, STIB 795), 5.33.
Taken in the same sequence, the figures for `COc1ccccc1C(NC(=O)C1CCCCC1)c1ccc2cccnc2c1O` (centres undefined) were less than 4.38 and 4.96.
Taken in the same sequence, the figures for `Nc1nc(NN2CCCCC2)nc(-c2cc(Cl)ccc2O)n1` were less than 4.68 and 5.38.
The corresponding values for `CN(C)CCCNCCCc1ccc(C(C)(C)C)cc1` are 5.10 and 7.10.
Consider `C=CCc1ccc(OCCCCCN2CCNCC2)c(OC)c1`, for which the pIC50 in data set [1] was less than 4.38; in data set [2] (Trypanosoma brucei, STIB 795) it was 5.50.
Taken in the same sequence, the figures for `Cc1ccc2ccc3ccc(C)nc3c2n1` [NEOCUPROINE] were less than 4.68 and 6.25.
The corresponding values for `CC(=O)Nc1ccc(C)cc1S(=O)(=O)NCCn1c(C)nc2ccccc21` are less than 4.38 and 5.32.
Consider `COc1ccc(/C(N)=N/OC(=O)C23CC4CC(CC(C4)C2)C3)cc1OC`, for which the pIC50 is less than 4.38 in data set [1] and 6.11 in data set [2] (Trypanosoma brucei, STIB 795).
`CCOC(=O)c1ccc(NC(=O)C2CCCN(C(=O)c3ccccc3F)C2)cc1` (centres undefined): the pIC50 was less than 4.68 in data set [1] and 4.25 in data set [2] (Trypanosoma brucei, STIB 795).
Taken in the same sequence, the figures for `CCOC(=O)N/N=C\c1ccc(-c2cccc(C(F)(F)F)c2)o1` were less than 4.38 and 5.50.
The corresponding values for `CCCC(=O)NC(c1cccc(F)c1)c1ccc2cccnc2c1O` (centres undefined) are less than 4.68 and 5.15.
The corresponding values for `CC(=O)NC(=S)NNC(=O)c1ccccc1OCc1ccccc1` are less than 4.68 and 5.54.
Regarding `COc1cc(C(=O)N/N=C(/C)c2ccccc2O)cc(OC)c1OC`, the pIC50 in data set [1] is less than 5.38; in data set [2] (Trypanosoma brucei, STIB 795) it was 5.35.
Taken in the same sequence, the figures for `Oc1nncc(N/N=C/c2ccccn2)n1` were less than 4.68 and 5.25.
With `O=C1CC(Sc2nc(-c3ccco3)cc(C(F)(F)F)n2)C2COC1O2` (centres undefined), the pIC50 is less than 4.68 in data set [1]; 4.92 and 5.29 in data set [2].
`Cc1oc2c(O)c(O)ccc2c(=O)c1Oc1ccccc1F`: the pIC50 in data set [1] is less than 4.38; in data set [2] (Trypanosoma brucei, STIB 795), 6.88.
The corresponding values for `N=C(N)n1nc(-c2ccccc2)cc1-c1ccccc1O` are less than 4.68 and 5.29.
On to `Cc1ccc(-c2cc(C(F)F)nc(SC3CC(=O)C4OCC3O4)n2)cc1` (centres undefined), for which the pIC50 in data set [1] is less than 4.38; in data set [2], < 4.98 and 5.28.
As for `CCN(CC)c1ccc(/C=N/NC(=O)c2cccs2)c(O)c1`, the pIC50 was less than 4.38 in data set [1] and 4.90 in data set [2] (Trypanosoma brucei, STIB 795).
Taken in the same sequence, the figures for `C/C(Cl)=C\CN1C(=O)C(=O)c2cc(Cl)ccc21` were less than 4.38 and 5.31.
Taken in the same sequence, the figures for `CCCn1c(=N)n(CC(O)COc2ccc(Cl)cc2Cl)c2ccccc21` (centres undefined) were 5.06 and 5.71.
The corresponding values for `CC(=O)NC(c1cccs1)c1ccc2cccnc2c1O` (centres undefined) are 6.01 and 6.03.
As for `COc1cc(-n2nnn(C3CC(=O)C4OCC3O4)c2=S)c(OC)cc1Cl` (centres undefined), the pIC50 in data set [1] was less than 4.68; in data set [2] it was < 4.98 and 5.32.
With `Cc1ccccc1C(=O)Nc1ccccn1`, the pIC50 in data set [1] is less than 4.38; in data set [2] (Trypanosoma brucei, STIB 795) it was 5.91.
The corresponding values for `CC(C)(C)c1cc(C(c2ccccn2)N2CCOCC2)cc(C(C)(C)C)c1O` (centres undefined) are less than 4.38 and 4.97.
For `Cc1cc(C)c2c(c1)CC(C)(C)C(=O)C2=O`, the pIC50 in data set [1] is less than 4.38; in data set [2] (Trypanosoma brucei, STIB 795), 5.48.
Regarding `O=C(/C=C/c1ccccc1Cl)Nc1ccc2ccccc2c1`, the pIC50 in data set [1] was less than 4.38; in data set [2] (Trypanosoma brucei, STIB 795) it was 5.21.
On to `NC1CCCc2c1[nH]c1ccc(Cl)cc21` (centres undefined), for which the pIC50 in data set [1] is less than 4.68; in data set [2], 6.08 and 5.64.
In the case of `CCC(/C=C1\Sc2ccccc2N1C)=C\c1sc2ccccc2[n+]1C`, the pIC50 in data set [1] is 5.64; in data set [2] (Trypanosoma brucei, STIB 795) it was 6.39.
Taken in the same sequence, the figures for `CC1(C)CC(=O)C/C(=N/NC(=O)c2cc3ccccc3cc2O)C1` were less than 4.38 and more than 7.00.
Taken in the same sequence, the figures for `CC(C)NC[C@]1(C)CCC[C@]2(C)c3ccc(C(C)C)cc3CC[C@@H]12` were less than 4.38 and 6.33.
The corresponding values for `Oc1cccnc1NC(c1ccc(Cl)cc1)c1ccc2cccnc2c1O` (centres undefined) are less than 4.38 and 5.40.
On to `CS(=O)(=O)/C=C(\c1ccccc1)c1ccncc1`, for which the pIC50 is less than 4.68 in data set [1] and 6.19 in data set [2] (Trypanosoma brucei, STIB 795).
The corresponding values for `CN(C)CCCC1c2ccccc2Sc2ccc(Cl)cc2C1O` (centres undefined) are less than 4.68 and 5.23.
Taken in the same sequence, the figures for `COc1ccc2[nH]c(C)c(CCNCc3cn(C)c4ccccc34)c2c1` were less than 4.68 and 5.32.
Taken in the same sequence, the figures for `Cc1cccc(C(=N)NOC(=O)c2ccoc2C)c1` were less than 4.98 and 6.47.
Regarding `CC(C)C1N=C(c2ccc3c(c2)OCO3)CC(c2cc(Cl)ccc2O)N1` (centres undefined), the pIC50 in data set [1] is less than 4.38; in data set [2] (Trypanosoma brucei, STIB 795), 5.25.
Regarding `CCCCCc1ccc(-c2ccc(C(=N)N)cc2)cc1`, the pIC50 in data set [1] is 4.81; in data set [2] (Trypanosoma brucei, STIB 795), 5.24.
Taken in the same sequence, the figures for `COc1ccc(/C(N)=N/OC(=O)N2CCOCC2)cc1OC` were less than 4.68 and 5.53.
The corresponding values for `COc1ccc(CC(C)N)c(Sc2ccccc2)c1` (centres undefined) are less than 4.38 and 5.27.
The corresponding values for `Oc1ccc(Cn2cnc3ccccc32)c2cccnc12` are less than 5.38 and 5.81.
Turning to `N=C(NOC(=O)C12CC3CC(CC(C3)C1)C2)c1ccccc1`, the pIC50 was less than 4.68 in data set [1] and 6.49 in data set [2] (Trypanosoma brucei, STIB 795).
Taken in the same sequence, the figures for `NCC12CC3CC(C1)CC(c1ccc(Br)cc1)(C3)C2` were 5.17 and 6.16.
Taken in the same sequence, the figures for `Cc1ccc([N+]2=C3SCCCN3C(O)(c3ccc(Cl)cc3Cl)C2)cc1` (centres undefined) were less than 5.38 and 5.28.
`CC(C)n1c(=N)n(CCOc2ccc(Br)cc2)c2ccccc21`: the pIC50 in data set [1] was less than 5.38; in data set [2] (Trypanosoma brucei, STIB 795), 5.69.
The corresponding values for `CN(C)CCNC(=O)c1ccc(COc2ccc(Cl)cc2Cl)cc1` are less than 4.68 and 5.47.
